According to US9120749B2, “Quinoline derivatives and MELK inhibitors containing the same” (ONCOTHERAPY SCIENCE, INC., priority 2010, dated 2015):
Counter-ions that a name gives are not always drawn. Like-named read-outs stand apart in the source and are kept apart here.

Columns and labels:
[1] = tested on: 22Rv1 cells; experiment: Cell-based assay: anti-proliferative activity, Cell Counting Kit-8, 72 hours (22Rv1)
[2] = tested on: DU4475 cells; experiment: Cell-based assay: anti-proliferative activity, Cell Counting Kit-8, 72 hours (DU4475)
[3] = tested on: T47D cells; experiment: Cell-based assay: anti-proliferative activity, Cell Counting Kit-8, 72 hours (T47D)
Summary of the method: (§1)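 T47D, A549 and BT-549 cells, with MELK-negative HT-1197 as control (MELK status checked by western blot), seeded at 2,000–3,000 cells/well. Growth measured by CCK-8 72 hours after inhibitor exposure; IC50 values calculated.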

[4] = biological target: MELK (Homo sapiens, UniProt Q14680); experiment: Kinase assay: MELK activity, phosphorylation of FITC-labeled histone H3 peptide measured by IMAP fluorescence polarization; type: biochemical; settings: read-out: IC50 (μM) (kinase assay)
Chain of MELK (Q14680 whole entry, looked up): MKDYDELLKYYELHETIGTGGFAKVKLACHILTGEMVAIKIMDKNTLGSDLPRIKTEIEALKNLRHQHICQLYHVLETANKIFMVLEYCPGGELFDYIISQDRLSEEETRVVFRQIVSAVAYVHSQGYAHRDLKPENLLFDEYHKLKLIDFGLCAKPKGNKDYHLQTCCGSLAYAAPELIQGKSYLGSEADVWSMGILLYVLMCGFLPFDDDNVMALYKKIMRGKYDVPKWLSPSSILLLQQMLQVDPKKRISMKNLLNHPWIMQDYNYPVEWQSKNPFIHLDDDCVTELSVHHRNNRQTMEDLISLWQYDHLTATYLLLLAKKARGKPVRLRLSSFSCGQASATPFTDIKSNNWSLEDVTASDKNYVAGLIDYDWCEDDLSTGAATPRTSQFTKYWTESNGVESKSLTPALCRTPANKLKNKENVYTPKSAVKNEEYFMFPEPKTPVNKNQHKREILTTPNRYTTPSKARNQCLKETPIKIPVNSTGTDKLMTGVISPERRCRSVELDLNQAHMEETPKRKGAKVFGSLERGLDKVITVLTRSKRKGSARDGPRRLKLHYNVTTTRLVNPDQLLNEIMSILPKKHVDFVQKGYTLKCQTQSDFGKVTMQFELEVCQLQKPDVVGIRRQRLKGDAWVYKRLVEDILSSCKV
Summary of the method: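 A FITC-labelled histone H3 peptide served as substrate, with compounds serially diluted to 1% DMSO final. Reactions were stopped with three volumes of IMAP progressive binding solution. After 0.5 h at room temperature, fluorescence polarization was read.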

[5] = tested on: A549 cells; experiment: Cell-based assay: anti-proliferative activity, Cell Counting Kit-8, 72 hours (A549); settings: 72 hours
Summary of the method: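 A549 cells were seeded in 96-well plates and exposed to candidate inhibitors for 72 hours. Cell growth was then measured with Cell Counting Kit-8, and IC50 values were calculated from the resulting growth data.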

[6] = tested on: HT-1197 cells; experiment: Cell-based assay: anti-proliferative activity, Cell Counting Kit-8, 72 hours (HT-1197, negative control without MELK expression); settings: HT1197 cells (negative control, no MELK expression), 72 hours
Summary of the method: as §1

[7] = MELK kinase assay, IMAP fluorescence polarization, 50 micro-M ATP

Compound	IC50 ([1]; Homo sapiens, 22Rv1, 72 h) [µM]	IC50 ([2]; Homo sapiens, DU-4475, 72 h) [µM]	IC50 ([3]; Homo sapiens, T47D, 72 h) [µM]	IC50 ([5]; Homo sapiens, A549, 72 h) [µM]	IC50 ([6]; Homo sapiens, HT1197, 72 h) [µM]	IC50 [4] [µM]	also measured
CCC(=O)c1cnc2ccc(-c3cc(F)c(O)c(Cl)c3)cc2c1N[C@H]1CC[C@H](CN2CCCC2)CC1 [Example 846]	0.16	0.071	0.096	0.13	0.71	–	IC50 [4, 7]: 0.0023 µM
CCN(CC)C[C@H]1CC[C@H](Nc2c(C(C)=O)cnc3ccc(-c4cc(Cl)c(O)c(OC)c4)cc23)CC1 [Example 791, 1-(6-(3-chloro-4-hydroxy-5-methoxyphenyl)-4-(1R,4R)-4-((diethylamino)methyl)cyclohexylamino)quinolin-3-yl)ethanone hydrochloride]	0.49	0.43	0.58	0.27	9.3	0.0031	–
CCN(C)C[C@H]1CC[C@H](Nc2c(C(C)=O)cnc3ccc(-c4cc(Cl)c(O)c(OC)c4)cc23)CC1 [Example 816, 1-(6-(3-chloro-4-hydroxy-5-methoxyphenyl)-4-(1R,4R)-4-((ethyl(methyl)amino)methyl)cyclohexylamino)quinolin-3-yl)ethanone hydrochloride]	0.44	0.36	0.28	0.25	7.3	–	IC50 [4, 7]: 0.0027 µM
CCC(=O)c1cnc2ccc(-c3cc(Cl)c(O)c(Cl)c3)cc2c1N[C@H]1CC[C@H](CN2CCCC2)CC1 [Example 843]	0.19	0.057	0.15	0.15	4.2	–	IC50 [4, 7]: 0.0016 µM
CC(=O)c1cnc2ccc(-c3cc(F)c(O)c(Cl)c3)cc2c1N[C@H]1CC[C@H](CN2CCC(N)C2)CC1 (stereo partly drawn) [Example 786, 1-(4-(1R,4R)-4-((3-aminopyrrolidin-1-yl)methyl)cyclohexylamino)-6-(3-chloro-5-fluoro-4-hydroxyphenyl)quinolin-3-yl)ethanone hydrochloride]	0.17	0.23	0.07	0.96	10	0.0031	–
CCC(=O)c1cnc2ccc(-c3cc(Cl)c(O)c(OC)c3)cc2c1Nc1ccc(N2CCC(N)C2)nc1 (stereo not drawn) [Example 775, 1-(4-(6-(3-aminopyrrolidin-1-yl)pyridin-3-ylamino)-6-(3-chloro-4-hydroxy-5-methoxyphenyl)quinolin-3-yl)propan-1-one]	0.12	0.065	0.049	0.049	0.75	0.0034	–
CN1CCN(c2ccc(Nc3c(C(=O)C4CC4)cnc4ccc(-c5cc(F)c(O)c(F)c5)cc34)cn2)CC1 [Example 778, cyclopropyl(6-(3,5-difluoro-4-hydroxyphenyl)-4-(6-(4-methylpiperazin-1-yl)pyridin-3-ylamino)quinolin-3-yl)methanone]	0.48	0.22	0.1	0.17	2.6	0.021	–
CC(=O)c1cnc2ccc(-c3cc(F)c(O)c(Cl)c3)cc2c1NC1CCCN(CCN(C)C)C1 (stereo not drawn) [Example 851, 1-(6-(3-chloro-5-fluoro-4-hydroxyphenyl)-4-(1-(2-(dimethylamino)ethyl)piperidin-3-ylamino)quinolin-3-yl)ethanone]	1.5	0.65	1.6	1.6	6	–	IC50 [4, 7]: 0.04 µM
CN(C)CCNc1ccc(Nc2c(C(=O)C3CC3)cnc3ccc(-c4cc(Cl)c(O)c(Cl)c4)cc23)cn1 [Example 748, cyclopropyl(6-(3,5-dichloro-4-hydroxyphenyl)-4-(6-(2-(dimethylamino)ethylamino)pyridin-3-ylamino)quinolin-3-yl)methanone hydrochloride]	0.1	–	–	–	–	–	IC50 ([2]; hydrochloride): 0.032 µM; IC50 ([3]; 72 hours, hydrochloride): 0.088 µM; IC50 ([4]; hydrochloride): 0.0026 µM; IC50 ([5]; hydrochloride): 0.069 µM; IC50 ([6]; hydrochloride): 1.6 µM
CCN(C)C[C@H]1CC[C@H](Nc2c(C(C)=O)cnc3ccc(-c4cc(Cl)c(O)c(Cl)c4)cc23)CC1 [Example 817, 1-(6-(3,5-dichloro-4-hydroxyphenyl)-4-((1R,4R)-4-((ethyl(methyl)amino)methyl)cyclohexylamino)quinolin-3-yl)ethanone]	0.12	0.074	0.097	0.15	11	–	IC50 [4, 7]: 0.0014 µM
COc1cc(-c2ccc3ncc(C(C)=O)c(N[C@H]4CC[C@H](CN5CCCC(N)C5)CC4)c3c2)cc(Cl)c1O (stereo partly drawn) [Example 809, 1-(4-(1R,4R)-4-((3-aminopiperidin-1-yl)methyl)cyclohexylamino)-6-(3-chloro-4-hydroxy-5-methoxyphenyl)quinolin-3-yl)ethanone hydrochloride]	2.6	10	4.6	3.1	10	0.016	–
CC(=O)c1cnc2ccc(-c3cc(Cl)c(O)c(Cl)c3)cc2c1N[C@H]1CC[C@H](N(C)C)CC1 [Example 765, 1-{6-(3,5-Dichloro-4-hydroxyphenyl)-4-[trans-4-(dimethylamino)cyclohexylamino]quinolin-3-yl}ethanone]	0.14	0.047	0.081	0.17	1.7	0.0022	–
CN(C)CCNc1ccc(Nc2c(C(=O)C3CC3)cnc3ccc(-c4cc(F)c(O)c(Cl)c4)cc23)cn1 [Example 776, (6-(3-chloro-5-fluoro-4-hydroxyphenyl)-4-(6-(2-(dimethylamino)ethylamino)pyridin-3-ylamino)quinolin-3-yl)(cyclopropyl)methanone]	0.15	0.038	0.073	0.08	1.2	–	–
CC(=O)c1cnc2ccc(-c3cc(F)c(O)c(Cl)c3)cc2c1Nc1cccc(CCN2CCCC2)c1 [Example 803, 1-(6-(3-chloro-5-fluoro-4-hydroxyphenyl)-4-(3-(2-(pyrrolidin-1-yl)ethyl)phenylamino)quinolin-3-yl)ethanone]	0.44	0.12	0.65	0.17	–	0.016	–
CN(C)CCNc1ccc(Nc2c(C(=O)C3CC3)cnc3ccc(-c4cc(F)c(O)c(Cl)c4)cc23)cn1 [Example 777, (6-(3-chloro-5-fluoro-4-hydroxyphenyl)-4-(6-(2-(dimethylamino)ethylamino)pyridin-3-ylamino)quinolin-3-yl)(cyclopropyl)methanone trihydrochloride]	–	–	–	–	–	–	IC50 ([1]; trihydrochloride): 0.17 µM; IC50 ([2]; trihydrochloride): 0.047 µM; IC50 ([3]; 72 hours, trihydrochloride): 0.12 µM; IC50 ([5]; trihydrochloride): 0.12 µM; IC50 ([6]; trihydrochloride): 1.6 µM
CC(=O)c1cnc2ccc(-c3cc(Cl)c(O)c(Cl)c3)cc2c1N[C@H]1CC[C@H](CN2CCC[C@H]2CO)CC1 [Example 792, 1-(6-(3,5-dichloro-4-hydroxyphenyl)-4-((1S,4r)-4-(((S)-2-(hydroxymethyl)pyrrolidin-1-yl)methyl)cyclohexylamino)quinolin-3-yl)ethanone]	0.12	0.073	0.079	0.1	–	0.0011	–
CC(=O)c1cnc2ccc(-c3cc(Cl)c(O)c(Cl)c3)cc2c1N[C@H]1CCC[C@@H](CN2CCN(C)CC2)C1 [Example 835, 1-(6-(3,5-dichloro-4-hydroxyphenyl)-4-((1S,3R)-3-((4-methylpiperazin-1-yl)methyl)cyclohexylamino)quinolin-3-yl)ethanone hydrochloride]	0.81	0.6	0.58	0.79	2.7	–	–
CC(=O)c1cnc2ccc(-c3cc(Cl)c(O)c(Cl)c3)cc2c1Nc1cccc(CCN2CCCC2)c1 [Example 802, 1-(6-(3,5-dichloro-4-hydroxyphenyl)-4-(3-(2-(pyrrolidin-1-yl)ethyl)phenylamino)quinolin-3-yl)ethanone hydrochloride]	–	–	–	–	–	–	IC50 ([1]; hydrochloride): 0.16 µM; IC50 ([2]; hydrochloride): 0.072 µM; IC50 ([3]; 72 hours, hydrochloride): 0.45 µM; IC50 ([4]; hydrochloride): 0.0021 µM; IC50 ([5]; hydrochloride): 0.08 µM
O=C(c1cnc2ccc(-c3cc(Cl)c(O)c(Cl)c3)cc2c1Nc1cccc(CCN2CCCC2)c1)C1CC1 [Example 797, Cyclopropyl{6-(3,5-dichloro-4-hydroxyphenyl)-4-[3-(2-(pyrrolidin-1-yl)ethyl)phenylamino]quinolin-3-yl}methanone]	0.12	0.03	0.31	0.022	–	0.0056	–
CC(=O)c1cnc2ccc(-c3cc(Cl)c(O)c(Cl)c3)cc2c1N[C@H]1CC[C@H](CN2CCN(C)CC2)CC1 [Example 782, 1-(6-(3,5-dichloro-4-hydroxyphenyl)-4-(1R,4R)-4-((4-methylpiperazin-1-yl)methyl)cyclohexylamino)quinolin-3-yl)ethanone hydrochloride]	0.41	0.16	0.15	0.23	5.9	–	–
CC(=O)c1cnc2ccc(-c3cc(Cl)c(O)c(Cl)c3)cc2c1Nc1cnn(C2CCN(C)CC2)c1 [Example 836, 1-(6-(3,5-dichloro-4-hydroxyphenyl)-4-((1-(1-methylpiperidin-4-yl)-1H-pyrazol-4-yl)amino)quinolin-3-yl)ethanone dihydrochloride]	0.27	0.082	0.35	0.45	–	–	IC50 [4, 7]: 0.0014 µM
